In patent US20260250262A1, “NEW COMPOUND AND PHARMACEUTICAL COMPOSITION COMPRISING SAME” (SAMJIN PHARMACEUTICAL CO., LTD., priority 2023, published 2026) one finds IC50 and CC50 data, which are given here for 33 compounds.

The target of experiment [1] is T1, Recombinant NAMPT protein (Homo sapiens, UniProt P43490).
T1 construct: purchased BPS bioscience #7176-1
The experiment is described as follows: NAMPT enzyme inhibition assay (BPS Bioscience NAMPT Inhibitor Screening Assay Kit). As to conditions: 30 min pre-incubation, 2 h at 30° C., fluorescence. It is filed as biochemical. The protocol: Recombinant NAMPT protein was added to each well of a black 96-well plate, and dilution buffer was added to a blank well instead of NAMPT protein. A 5× concentrated compound solution was added and pre-incubated at room temperature (approximately 22° C.) for 30 minutes before the start of the reaction so that the compound and protein might bind before the enzyme reaction. At this time, the concentration of NAMPT protein was adjusted and used according to the enzyme activity of each protein lot within the final concentration range of 4-10 ng/μl, and the test compound was serially diluted at a ratio of 1:3 from 1000 nM to 1 nM, and experiments were conducted with n=2 for about seven concentrations. […] The NAMPT enzyme activity (%) was calculated by subtracting the measurement value of the blank well without NAMPT protein from the measurement value of all wells, and then taking the measurement value of the control well without the compound as 100%.

The subject of the next experiment is HCT-116 cell lines. The experiment is described as follows: Cellular NAD measurement assay (NAD/NADH-Glo). The format is cell-based. As to conditions: Homo sapiens; HCT-116, 24 hours treatment, intracellular NAD+/NADH level. The protocol: With regard to HCT-116 cell lines, the decrease in intracellular NAD+ and NADH levels due to the inhibition of NAMPT enzyme activity by compounds was evaluated using NAD/NADH-Glo™ Assay (Promega, G9072) from Promega. The cells were incubated using DMEM (Gibco, 11995-065) medium containing 10% FBS. The HCT-116 cells were incubated for 24 hours after being distributed at a density of 2,500 cells per well in a 96-well plate, and were treated with the drugs using serum-free DMEM. First, the compounds were dissolved in 100% dimethyl sulfoxide (DMSO), and then diluted in the culture medium so that the final concentration of DMSO might reach 0.5%, and treated with the drugs. The final concentration range of the compounds was 0.1 nM to 100 nM. After that, they were further incubated for 24 hours under conditions of 37° C. and CO2 5%. To conduct the NAD/NADH-Glo™ Assay, the culture medium of drug-treated cells was removed, 50 μL of DPBS was treated per well, and left at room temperature for five minutes. The required amount of NAD/NADH-Glo™ Detection Reagent (Reconstituted Luciferin Detection Reagent 1 mL, Reductase 5 μL, Reductase Substrate 5 μL, NAD Cycling Enzyme 5 μL, NAD Cycling Substrate 25 μL) was prepared according to the manufacturer's manual and treated in an amount of 50 μL per well. After incubating for two minutes at 400 rpm in a plate shaker for cell lysis, the cells were incubated for 30 minutes at room temperature, and luminescence was measured. NAD+/NADH levels were calculated by subtracting the measurement value of the blank well without cells from the measurement value of all wells and taking the 0.5% DMSO-treated control as 100%.

For experiment [2], the system named is HCT-116 (colorectal cancer). The experiment is described as follows: Tumor cytotoxicity assay (MTT), HCT-116. The format is cell-based. As to conditions: Homo sapiens, HCT-116, 72 hours. The method, then: (§1) First, the compounds were prepared in 100% dimethyl sulfoxide (DMSO) at concentrations of 0.02 μM to 200 μM, and then diluted in the culture medium so that the final concentration of DMSO might reach 0.5%, and treated with the drugs. The final concentration range of the compounds was 0.1 nM to 1000 nM. After that, they were further incubated for 72 hours under conditions of 37° C. and CO2 5%. […] The cell viability (%) was relatively determined by subtracting the reference 650 nm optical density (O.D.) from the 570 nm O.D., and the 0.5% DMSO-treated control was set as 100% as the standard.

The next experiment relates to NCI-N87 (gastric cancer). The experiment is described as follows: Tumor cytotoxicity assay (MTT), NCI-N87. The format is cell-based. As to conditions: Homo sapiens, NCI-N87, 72 hours. The method, then:
as §1

T1 sequence (P43490 whole entry): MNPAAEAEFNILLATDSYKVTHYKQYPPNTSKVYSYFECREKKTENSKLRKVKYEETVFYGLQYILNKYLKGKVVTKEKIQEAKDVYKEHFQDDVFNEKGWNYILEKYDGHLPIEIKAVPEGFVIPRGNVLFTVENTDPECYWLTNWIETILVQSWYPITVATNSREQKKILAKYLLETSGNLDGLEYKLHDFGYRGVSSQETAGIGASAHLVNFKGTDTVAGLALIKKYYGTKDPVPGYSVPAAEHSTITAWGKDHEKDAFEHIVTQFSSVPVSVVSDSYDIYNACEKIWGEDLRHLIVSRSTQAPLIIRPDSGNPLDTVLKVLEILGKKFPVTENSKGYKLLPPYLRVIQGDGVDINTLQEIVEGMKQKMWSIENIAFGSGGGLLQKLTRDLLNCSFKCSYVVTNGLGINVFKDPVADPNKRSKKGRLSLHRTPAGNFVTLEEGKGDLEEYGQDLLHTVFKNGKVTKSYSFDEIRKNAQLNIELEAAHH

`O=C(NCCc1cccnc1)Nc1ccc(-c2ccncc2)c(C#Cc2ccc(F)cc2)c1` [Compound 1, 1-(3-((4-fluorophenyl)ethynyl)-4-(pyridin-4-yl)phenyl)-3-(2-(pyridin-3-yl)ethyl)urea]: the IC50 in experiment [1] is < 500 nM; in the experiment on HCT-116 cell lines, 10 to 1000 nM. Besides, the CC50 (in experiment [2]; in the experiment with NCI-N87 (gastric cancer)) was 30 to 100 nM in each case.

Turning to `O=C(NCCc1cccnc1)Nc1ccc(-c2ccc(C(=O)N3CCC(F)(F)CC3)cc2)c(C#Cc2ccc(F)cc2)c1` [Compound 2, 1-(4′-(4,4-difluoropiperidine-1-carbonyl)-2-((4-fluorophenyl)ethynyl)-[1,1′-biphenyl]-4-yl)-3-(2-(pyridin-3-yl)ethyl)urea], the IC50 in experiment [1] is < 500 nM.

As for `O=C(NCCn1ccnc1)Nc1ccc(-c2ccncc2)c(C#Cc2ccc(F)cc2)c1` [Compound 3, 1-(2-(1H-imidazol-1-yl)ethyl)-3-(3-((4-fluorophenyl)ethynyl)-4-(pyridin-4-yl)phenyl)urea], the IC50 in experiment [1] lay within 500 to 1000 nM.

Take `O=C(NCCc1cccc(O)c1)Nc1ccc(-c2ccncc2)c(C#Cc2ccc(F)cc2)c1` [Compound 5, 1-(3-((4-fluorophenyl)ethynyl)-4-(pyridin-4-yl)phenyl)-3-(3-hydroxyphenethyl)urea]: in experiment [1], the IC50 is > 1000 nM.

For the compound `O=C(NCc1cc2cnccc2[nH]1)Nc1ccc(-c2ccncc2)c(C#Cc2ccc(F)cc2)c1` [Compound 6, 1-((1H-pyrrolo[3,2-c]pyridin-2-yl)methyl)-3-(3-((4-fluorophenyl)ethynyl)-4-(pyridin-4-yl)phenyl)urea], in experiment [1], the IC50 is < 500 nM. This compound displayed a CC50 in experiment [2] of 30 to 100 nM.

`O=C(NCCc1cccnc1)Nc1ccc(-c2ccncc2)c(C#Cc2ccc(C(=O)NCCN3CCCCC3)cc2)c1` [Compound 7, N-(2-(piperidin-1-yl)ethyl)-4-((5-(3-(2-(pyridin-3-yl)ethyl)ureido)-2-(pyridin-4-yl)phenyl)ethynyl)benzamide]: the IC50 in experiment [1] is < 500 nM. Besides, the CC50 in experiment [2] is < 30 nM.

Consider `O=C(NCCn1ccnc1[N+](=O)[O-])Nc1ccc(-c2ccncc2)c(C#Cc2ccc(F)cc2)c1` [Compound 8, 1-(3-((4-fluorophenyl)ethynyl)-4-(pyridin-4-yl)phenyl)-3-(2-(2-nitro-1H-imidazol-1-yl)ethyl)urea], for which, in experiment [1], the IC50 is > 1000 nM.

As to `O=C(NCCc1cccnc1)Nc1ccc(-c2cccc(N3CCOCC3)c2)c(C#Cc2ccc(F)cc2)c1` [Compound 9, 1-(2-((4-fluorophenyl)ethynyl)-3′-morpholino-[1,1′-biphenyl]-4-yl)-3-(2-(pyridin-3-yl)ethyl)urea], the IC50 in experiment [1] was in the range of 500 to 1000 nM.

Take `Nc1ccc(CCNC(=O)Nc2ccc(-c3ccncc3)c(C#Cc3ccc(F)cc3)c2)cn1` [Compound 10]: in experiment [1], the IC50 was > 1000 nM.

Consider `O=C(NCCc1ccc2ocnc2c1)Nc1ccc(-c2ccncc2)c(C#Cc2ccc(F)cc2)c1` [Compound 11], for which the IC50 in experiment [1] is > 1000 nM.

As for `O=C(NCCc1cccnc1)Nc1ccc(-c2ccncc2)c(C#Cc2ccc(C(=O)NCCN3CCC4(CCNC4)CC3)cc2)c1` [Compound 35], the IC50 in experiment [1] is < 500 nM. Further, the CC50 (in experiment [2]; with NCI-N87 (gastric cancer)) was 30 to 100 nM throughout.

In the case of `NC1CCCN(CCNC(=O)c2ccc(C#Cc3cc(NC(=O)NCCc4cccnc4)ccc3-c3ccncc3)cc2)C1` (stereo not shown) [Compound 40], the IC50 in experiment [1] is < 500 nM. For the same compound, the CC50 (in experiment [2]; in the experiment on NCI-N87 (gastric cancer)) was 30 to 100 nM in each case.

As for `NC1CCN(C(=O)c2cccc(-c3ccc(NC(=O)NCCc4cccnc4)cc3C#Cc3ccc(C(=O)NCCN4CCCCC4)cc3)c2)C1` (stereo not shown) [Compound 43], the IC50 in experiment [1] is > 1000 nM.

As for `Nc1cccc(C(=O)N2CCN(c3ccc(NC(=O)NCCc4cccnc4)cc3C#Cc3ccc(F)cc3)CC2)c1` [Compound 52], in experiment [1], the IC50 is < 500 nM.

For the compound `O=C(NCCc1cccnc1)Nc1ccc(-c2ccc3cnccc3c2)c(C#Cc2ccc(F)cc2)c1` [Compound 57], the IC50 in experiment [1] is < 500 nM.

`NC1CCN(C(=O)c2ccc(C#Cc3cc(NC(=O)NCCc4cccnc4)ccc3-c3ccncc3)cc2)CC1` [Compound 65, 1-(3-((4-(4-aminopiperidin-1-carbonyl)phenyl)ethynyl)-4-(pyridin-4-yl)phenyl)-3-(2-(pyridin-3-yl)ethyl)urea]: in experiment [1], the IC50 was < 500 nM. Besides, the CC50 in experiment [2] was in the range of 30 to 100 nM.

In the case of `O=C(NCCc1cccnc1)Nc1ccc(-c2ccncc2)c(C#Cc2ccc(C(=O)NC3CCNCC3)cc2)c1` [Compound 66, N-(piperidin-4-yl)-4-((5-(3-(2-(pyridin-3-yl)ethyl)ureido)-2-(pyridin-4-yl)phenyl)ethynyl)benzamide], the 50% inhibitory concentration (IC50) in experiment [1] is < 500 nM. Besides, the results for the CC50 (in experiment [2]; in the experiment on NCI-N87 (gastric cancer)) were 30 to 100 nM and < 30 nM, respectively.

Regarding `Cn1ccc(CS(=O)(=O)c2ccc(NC(=O)NCCc3cccnc3)cc2C#Cc2ccc(F)cc2)n1` [Compound 69], the IC50 in experiment [1] is < 500 nM.

As to `O=C(NCCc1cccnc1)Nc1ccc(CC(=O)N2CCCCC2)c(C#Cc2ccc(F)cc2)c1` [Compound 74], the IC50 in experiment [1] is < 500 nM. Moreover, the CC50 with NCI-N87 (gastric cancer) is < 30 nM.

For the compound `CC(C(=O)NC1CCCCC1)c1ccc(NC(=O)NCCc2cccnc2)cc1C#Cc1ccc(C(=O)NCCN2CCCCC2)cc1` (stereo not shown) [Compound 89], the IC50 in experiment [1] was < 500 nM. Further, the CC50 in experiment [2] lay in the range of 30 to 100 nM.

With `O=C(NCCc1cccnc1)Nc1ccc(C(=O)Nc2ccccc2)c(C#Cc2ccc(C(=O)NCCN3CCCCC3)cc2)c1` [Compound 95], the IC50 in experiment [1] is < 500 nM.

Regarding `O=C(NCCCc1cn[nH]c1)Nc1ccc(-c2ccncc2)c(C#Cc2ccc(F)cc2)c1` [Compound 110], in experiment [1], the IC50 was < 500 nM.

As for `O=C(NCCc1cccnc1)Nc1ccc(N2CCNCC2)c(C#Cc2ccc(F)cc2)c1` [Compound 118], the IC50 in experiment [1] was > 1000 nM.

In the case of `CCC(=O)Nc1ccc(NC(=O)NCCc2cccnc2)cc1C#Cc1ccc(F)cc1` [Compound 122], in experiment [1], the IC50 is < 500 nM.

In the case of `O=C(NCCc1cccnc1)Nc1ccc(NC(=O)c2ccc(F)cc2)c(C#Cc2ccc(F)cc2)c1` [Compound 124], the IC50 in experiment [1] was < 500 nM.

With `CC(=O)Nc1ccc(C#Cc2cc(NC(=O)NCCc3cccnc3)ccc2-c2ccncc2)cc1` [Compound 126, N-(4-((5-(3-(2-(pyridin-3-yl)ethyl)ureido)-2-(pyridin-4-yl)phenyl)ethynyl)phenyl)acetamide], the IC50 in experiment [1] was < 500 nM. Moreover, the CC50 in the experiment on NCI-N87 (gastric cancer) is < 30 nM.

Regarding `Nc1cccc(C#Cc2cc(NC(=O)NCCc3cccnc3)ccc2-c2ccncc2)c1` [Compound 139], the IC50 in experiment [1] is < 500 nM.

Consider `Nc1cccc(C(=O)Nc2ccc(NC(=O)NCCc3cccnc3)cc2C#Cc2ccc(F)cc2)c1` [Compound 177], for which the IC50 in experiment [1] is < 500 nM.

In the case of `O=C(NCCc1ccc([N+](=O)[O-])nc1)Nc1ccc(-c2ccncc2)c(C#Cc2ccc(F)cc2)c1` [Compound 182], in experiment [1], the IC50 was > 1000 nM.

As for `Cn1ccc(CS(=O)(=O)c2ccc(NC(=O)NCc3ccn4ccnc4c3)cc2C#Cc2ccc(F)cc2)n1` [Compound 183, 1-(3-((4-fluorophenyl)ethynyl)-4-(((1-methyl-1H-pyrazol-3-yl)methyl)sulfonyl)phenyl)-3-(imidazo[1,2-a]pyridin-7-ylmethyl)urea], the IC50 was < 500 nM in experiment [1] and ≤ 10 nM with HCT-116 cell lines. Also, in experiment [2], the CC50 is < 30 nM.

Regarding `NC1CCCN(c2ccc(NC(=O)NCCc3cccnc3)cc2C#Cc2ccc(C(=O)NCCN3CCCCC3)cc2)C1` (stereo not shown) [Compound 184], in experiment [1], the IC50 lay within 500 to 1000 nM.

Consider `O=C(NCc1ccn2ccnc2c1)Nc1ccc(-c2ccc(N3CCNCC3)cc2)c(C#Cc2ccc(F)cc2)c1` [Compound 185], for which the IC50 in experiment [1] fell in the range of 500 to 1000 nM.

Turning to `Cc1nc2cc(-c3ccc(NC(=O)NCc4ccn5ccnc5c4)cc3C#Cc3ccc(F)cc3)ccc2c(=O)n1CCN` [Compound 188], the IC50 in experiment [1] was < 500 nM. Besides, the CC50 (in experiment [2]; in the experiment with NCI-N87 (gastric cancer)) was < 30 nM each time.

Broadly, the IC50 is the concentration that inhibits the measured activity by half. By CC50 is commonly meant the concentration that lowers cell viability or growth by half. Lower therefore signals harm at low concentration.
